Reference: ChEMBL document CHEMBL1799935, “Identification of new inhibitors of protein kinase R guided by statistical modeling” (Bioorg Med Chem Lett, 2011)
pIC50, pKi: −log10 of the molar value. Calls of active or inactive are those of the source. The rule behind the calls is not given here.

What was measured:
[1] = molecular target: T1, Interferon-induced, double-stranded RNA-activated protein kinase (Homo sapiens, UniProt P19525); assay: Inhibition of human recombinant PKR autophosphorylation using poly[I:C] after 10 mins by luminescent assay
T1 sequence (P19525 whole entry): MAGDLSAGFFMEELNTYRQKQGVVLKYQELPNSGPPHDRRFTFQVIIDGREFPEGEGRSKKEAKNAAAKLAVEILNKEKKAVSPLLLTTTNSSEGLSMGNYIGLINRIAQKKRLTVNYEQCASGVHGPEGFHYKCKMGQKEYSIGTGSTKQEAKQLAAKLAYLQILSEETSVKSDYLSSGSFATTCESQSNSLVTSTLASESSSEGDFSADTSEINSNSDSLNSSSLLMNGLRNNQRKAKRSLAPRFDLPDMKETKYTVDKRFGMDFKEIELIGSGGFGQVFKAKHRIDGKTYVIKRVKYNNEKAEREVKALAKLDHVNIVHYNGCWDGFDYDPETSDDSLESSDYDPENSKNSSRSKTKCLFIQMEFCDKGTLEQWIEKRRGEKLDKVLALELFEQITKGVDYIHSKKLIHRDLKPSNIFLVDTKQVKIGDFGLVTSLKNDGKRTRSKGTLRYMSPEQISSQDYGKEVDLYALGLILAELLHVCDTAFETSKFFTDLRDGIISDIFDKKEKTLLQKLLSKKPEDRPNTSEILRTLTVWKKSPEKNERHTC

[2] = molecular target: T2, Interferon-induced, double-stranded RNA-activated protein kinase (Mus musculus) (UniProt Q03963); assay: Inhibition of poly[I:C]-induced PKR autophosphorylation mouse bone marrow macrophages at 40 uM treated immediately before addition of poly[I:C] by Western blotting
T2 sequence (whole entry): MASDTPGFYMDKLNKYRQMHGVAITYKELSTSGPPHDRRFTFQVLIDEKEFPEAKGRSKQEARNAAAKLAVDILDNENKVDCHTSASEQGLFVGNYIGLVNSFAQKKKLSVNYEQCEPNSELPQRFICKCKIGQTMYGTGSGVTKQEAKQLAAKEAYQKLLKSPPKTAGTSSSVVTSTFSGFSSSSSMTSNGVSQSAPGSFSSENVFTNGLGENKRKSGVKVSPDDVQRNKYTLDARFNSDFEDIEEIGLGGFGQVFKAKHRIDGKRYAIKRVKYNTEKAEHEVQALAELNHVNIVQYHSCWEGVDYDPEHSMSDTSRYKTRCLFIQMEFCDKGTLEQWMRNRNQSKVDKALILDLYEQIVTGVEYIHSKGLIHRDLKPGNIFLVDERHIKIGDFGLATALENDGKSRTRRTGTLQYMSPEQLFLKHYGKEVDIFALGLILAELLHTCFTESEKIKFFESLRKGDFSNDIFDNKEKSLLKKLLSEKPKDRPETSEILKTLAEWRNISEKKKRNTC

[3] = system: Vero; assay: Cytotoxicity against african green monkey Vero cells assessed as cell survival at up to 100 uM after 48 hrs by MTS assay; type: cell-based; details: chlorocebus sabaeus
[4] = molecular target: T1, Interferon-induced, double-stranded RNA-activated protein kinase; assay: Competitive inhibition of human recombinant PKR
[5] = molecular target: T2, Interferon-induced, double-stranded RNA-activated protein kinase (Mus musculus); assay: Inhibition of poly[I:C]-induced PKR autophosphorylation mouse bone marrow macrophages treated immediately before addition of poly[I:C] by Western blotting
[6] = Cytotoxicity against mouse bone marrow macrophages assessed as cell survival at 30 uM after 24 hrs by photomicroscopy analysis; type: cell-based; details: macrophage
[7] = Cytotoxicity against mouse bone marrow macrophages assessed as cell survival at up to 100 uM after 48 hrs by MTS assay; type: cell-based; details: macrophage

| SMILES | pIC50 [1] | further results |
| --- | --- | --- |
| COC(=O)c1ccc2c(-c3ccnc(NCCN4CCOCC4)n3)c[nH]c2c1 | 4.74 |  |
| Cc1[nH]c2ccccc2c1-c1ccnc(Nc2ccc(F)cc2)n1 | 6.82 |  |
| COc1ccc2[nH]cc(-c3ccnc(NCCN4CCOCC4)n3)c2c1 | < 4.00 |  |
| Cc1[nH]c2ccc(Cl)cc2c1-c1ccnc(Nc2ccc(N3CCN(C)CC3)cc2)n1 | 7.00 |  |
| Nc1nc(Nc2ccc(S(N)(=O)=O)cc2)nn1C(=S)Nc1c(F)cccc1F | 5.80 |  |
| O=C(O)/C=C/c1cc(Br)c(Br)c(Br)c1Br | 5.15 |  |
| CC(C)n1cnc2c(Nc3cccc(Cl)c3)nc(NCCO)nc21 | 4.80 |  |
| Nc1n[nH]c2nc3ccccc3nc12 [QUINOXALINE1] | 5.22 |  |
| N#C/C(=C1/Nc2ccccc2S1)c1ccnc(NCCc2cccnc2)n1 | > 7.00 |  |
| CCn1cnc2c(Nc3cccc(Cl)c3)nc(N[C@@H]3CCCC[C@@H]3N)nc21 | 5.52 |  |
| O=C1NC(=O)c2c1c1c3ccccc3[nH]c1c1[nH]c3cc(Br)ccc3c21 | 5.22 |  |
| Cc1[nH]c2ccccc2c1-c1ccnc(N2CCOCC2)n1 | 4.05 |  |
| O=C(Nc1cccc(Nc2nccc(Nc3cccc(C(F)(F)F)c3)n2)c1)C1CC1 [ANILINOPYRIMIDINE1] | 4.70 |  |
| c1ccc(-c2[nH]c3ccccc3c2-c2ccnc(NCCN3CCOCC3)n2)cc1 | 4.92 |  |
| CN1C(=O)NC(=O)/C(=C\c2c[nH]c3ccc(O)cc23)C1=O | 5.52 |  |
| CN1CCN(c2ccc(Nc3ncnc4ccc([N+](=O)[O-])cc34)cc2)CC1 | 4.82 |  |
| c1ccc(-c2[nH]c3ccccc3c2-c2ccnc(NCc3cccnc3)n2)cc1 | < 4.00 | inhibition [2]: inactive |
| COc1ccc2c(c1)/C(=N/NC(=O)c1cc(Br)ccc1O)C(=O)N2 | 5.03 |  |
| O=c1nncc(Nc2ccc3cn[nH]c3c2)[nH]1 | 4.89 |  |
| O=C1Nc2ccccc2/C1=C1/Nc2ccccc2/C1=N\OCCC(O)CO (configuration not stated) | > 7.00 |  |
| O=C1NC(=O)/C(=C\c2c[nH]c3ccccc23)N1 | 4.96 |  |
| Cc1[nH]c2ccccc2c1-c1ccnc(NCCO)n1 | 4.96 |  |
| C=C1NNC(=O)/C1=N\Nc1ccc(S(N)(=O)=O)cc1 | 4.96 |  |
| Cc1[nH]c2ccc(Cl)cc2c1-c1ccnc(NCCN2CCOCC2)n1 | 4.92 |  |
| COC(=O)c1ccc2c(-c3ccnc(SCCN(C)C)n3)c[nH]c2c1 | < 4.00 |  |
| Cc1[nH]c2ccccc2c1-c1ccnc(Nc2ccc(F)c(F)c2)n1 | 5.82 |  |
| c1ccc(-c2[nH]c3ccccc3c2-c2ccnc(NC3CCCC3)n2)cc1 | < 4.00 | inhibition [2]: inactive |

| SMILES | pIC50 [1] | further results |
| --- | --- | --- |
| COCCCNc1nccc(-c2c(C)[nH]c3ccccc23)n1 | 5.82 |  |
| OCCNc1nccc(-c2c[nH]c3ccccc23)n1 | 4.96 |  |
| Cc1[nH]c2ccccc2c1-c1ccnc(NCCc2c[nH]c3ccccc23)n1 | 5.05 | Activity [3]: Non-toxic; pKi [4]: 5.47; inhibition [5]: Dose-dependent effect; Activity [6]: Non-toxic; Activity [7]: Non-toxic |
| Nc1cccc(-c2cc3c(Oc4cccc(O)c4)ncnc3[nH]2)c1 | 5.40 |  |
| Cc1[nH]c2ccc(Cl)cc2c1-c1ccnc(NCc2cccnc2)n1 | 4.32 |  |
| O=C1NCc2c1c1c3ccccc3n3c1c1c2c2ccccc2n1C1CCC3O1 (configuration not stated) | 6.12 |  |
| O=C(O)c1ccc2c3c1cccc3c(=O)n1c3ccccc3nc21 | > 7.00 |  |
| Fc1ccc(N2CCN(c3nccc(-c4c[nH]c5ccccc45)n3)CC2)cc1 | < 4.00 |  |
| Cc1[nH]c2ccccc2c1-c1ccnc(Nc2ccccc2Cl)n1 | 4.72 |  |
| O=C1NC(=O)c2c1c1c3ccccc3[nH]c1n1cncc21 [ISOGRANULATIMIDE] | > 7.00 |  |
| Cc1[nH]c2ccccc2c1-c1ccnc(N2CCCC2)n1 | < 4.00 |  |
| O=C1NC(=O)/C(=C/c2c[nH]c3ccccc23)N1 | 4.98 |  |
| COCCCNc1nccc(-c2c(C)[nH]c3ccc(Cl)cc23)n1 | 5.52 |  |
| Cc1[nH]c2ccccc2c1-c1ccnc(NC(CO)C(C)C)n1 (configuration not stated) | 4.30 |  |
| Cn1ncc2c(N3CCOCC3)nc(NCCc3c[nH]c4ccccc34)nc21 [TDR79432] | 4.96 |  |
| Nc1nc(Nc2ccc(S(N)(=O)=O)cc2)nn1C(=O)Nc1c(F)cccc1F | 5.10 |  |
| Nc1nc(Nc2ccc(OC(F)(F)F)cc2)c2nc[nH]c2n1 | 4.70 |  |
| Cc1cc(Nc2nc(-c3ccccc3)nc3ccccc23)[nH]n1 | 4.82 |  |
| Cc1[nH]c2ccccc2c1-c1ccnc(Nc2ccc(Cl)cc2)n1 | 6.22 |  |
| Cc1[nH]c2ccc(Cl)cc2c1-c1ccnc(N2CCCC2)n1 | < 4.00 |  |
| O=C1NC(=O)/C(=C/c2c[nH]c3ccc(Br)cc23)N1 | 5.40 |  |
| C=C1NNC(=O)N=C1Nc1ccc2cn[nH]c2c1 | 4.80 |  |
| Cc1[nH]c2ccccc2c1-c1ccnc(NCc2cccnc2)n1 | 4.35 |  |
| O=Nc1c(-c2c(O)[nH]c3ccccc23)[nH]c2ccccc12 [INDIRUBIN-3-MONOXIME] | > 7.00 |  |
| COc1ccc(Nc2nccc(-c3c(C)[nH]c4ccc(OC)cc34)n2)cc1 | 4.26 |  |
| Oc1c2ccccc2c2c3c(cccc13)N=N2 [SP-600125] | 5.10 |  |
| Cc1[nH]c2ccc(Cl)cc2c1-c1ccnc(NC2CCCC2)n1 | 5.10 |  |

| SMILES | pIC50 [1] | further results |
| --- | --- | --- |
| Cc1[nH]c2ccc(Cl)cc2c1-c1ccnc(N2CCN(c3ccc(F)cc3)CC2)n1 | < 4.00 |  |
| Cc1[nH]c2ccccc2c1-c1ccnc(N2CCN(c3ccccn3)CC2)n1 | < 4.00 |  |
| N#Cc1cnc2cnc(NCc3cccnc3)cc2c1Nc1ccc(F)c(Cl)c1 | 6.60 |  |
| COc1ccc2c(c1)[nH]c1c(N3CCN(C(N)=O)CC3)ncnc12 | 4.89 |  |
| FC(F)(F)c1nnc2ccc(NCCc3c[nH]c4ccccc34)nn12 | 4.72 |  |
| N#CCCc1ccc2c(c1)C1Nc3ccc([N+](=O)[O-])cc3C1CC(=O)N2 (configuration not stated) | 5.46 |  |
| COC(=O)c1ccc2c(-c3ccnc(NCCO)n3)c[nH]c2c1 | 5.05 |  |
| Cn1nc2c3c(cccc31)C(=O)c1ccccc1-2 | 4.92 |  |
| COC(=O)[C@]1(O)C[C@@H]2O[C@@]1(C)n1c3ccccc3c3c4c(c5c6ccccc6n2c5c31)C(=O)NC4 (single isomer, unassigned) | > 7.00 |  |
| NC(=O)Nc1sc(-c2ccc(F)cc2)cc1C(N)=O | 6.60 |  |
| Nc1ncnc2[nH]nc(Nc3ccc(F)cc3)c12 | 5.30 |  |
| Cc1[nH]c2ccccc2c1-c1ccnc(Nc2cccc(Cl)c2)n1 | 6.52 |  |
| COc1ccc2c(c1)/C(=C/c1cnc[nH]1)C(=O)N2 [SU-9516] | 5.30 |  |
| CCN(CC)C(=O)c1ccc(Nc2nc(OCC3CCCCC3)c3nc[nH]c3n2)cc1 | 5.70 |  |
| COc1ccc2[nH]c(C)c(-c3ccnc(Nc4ccc(Cl)cc4)n3)c2c1 | 4.30 |  |
| COc1ccc2[nH]c(C)c(-c3ccnc(NC4CCCC4)n3)c2c1 | 5.82 |  |
| Cc1[nH]c2ccccc2c1-c1ccnc(N2CCN(c3ccc(F)cc3)CC2)n1 | < 4.00 |  |
| c1cc(-c2cnn3cc(-c4ccc(OCCN5CCCCC5)cc4)cnc23)ccn1 [DORSOMORPHIN] | 4.80 |  |
| NCc1ccc(C(=O)N/N=C2\C(=O)Nc3ccc(Br)cc32)cc1 | 4.92 |  |
| Cc1[nH]c2ccc(Cl)cc2c1-c1ccnc(Nc2cccc(Cl)c2)n1 | 5.60 |  |
| Fc1ccc(Nc2nccc(-c3c(-c4ccccc4)[nH]c4ccccc34)n2)cc1 | 5.15 |  |
| O=C1Cc2ccc(Oc3ccc4c(c3)NC(=O)C4)cc2N1 | 4.85 |  |
| c1ccc2c(CCNc3nccc(-c4c[nH]nc4-c4ccncc4)n3)c[nH]c2c1 | 4.29 |  |
| O=C1Nc2cc(Br)ccc2/C1=C1/Nc2ccccc2/C1=N\O [6BIO] | 6.22 |  |
| CSc1cccc(N/C=C2\C(=O)Nc3ccccc32)c1 | 5.60 |  |
| Cc1[nH]c2ccccc2c1-c1ccnc(Nc2cccnc2)n1 | 7.00 |  |
